What was measured:
hERG potassium channel = biological target: T1, hERG potassium channel (Homo sapiens, UniProt Q12809); assay: hERG screening assay (PatchXpress patch clamp, CHO cells); assay type: cell-based; conditions: hERG in CHO cells, peak current at −50 mV; for hERG Patch Clamp hERG % blk 1 μm: 1 μm test compound; for hERG Patch Clamp hERG % blk 10 μm: 10 μm test compound
T1 construct: expressed in transfected cells; host or cells: CHO (Chinese Hamster Ovary)
Method: Compounds were screened to test their activity in blocking the hERG potassium channel. The hERG channel is heterologously expressed in a CHO (Chinese Hamster Ovary) cell line. Cells are maintained with standard tissue culture procedures and stable channel expression is maintained with 500 μg/ml G418 in the culture medium. Cells are harvested for testing on the PatchXpress automated patch clamp with Accumax (Innovative Cell Technologies, San Diego, Calif.) to isolate single cells.
The following solutions are used for electrophysiological recordings. The external solution contains: 2 mM CaCl2; 2 mM MgCl2; 4 mM KCl; 150 mM NaCl; 10 mM Glucose; 10 mM HEPES (pH 7.4 with 1M NaOH, osmolarity). The internal solution contains: 140 mM KCl, 10 mM MgCl2, 6 mM EGTA, 5 mM HEPES, 5 mM ATP (pH adjusted to 7.25 with KOH).
hERG channels are activated when the voltage is stepped to +20 mV from the −80 mV holding potential. During a 5 second step at +20 mV, the channels activate and then largely inactivate, so the currents are relatively small. Upon returning to −50 mV from +20 mV, hERG currents transiently become much larger as inactivation is rapidly removed and then the channel closes. The first step to −50 mV for 300 ms is used as a baseline for measuring the peak amplitude during the step to −50 mV after channel activation. The peak current at −50 mV is measured both under control conditions and after addition of compound.
All compounds are prepared as 10 mM DMSO stocks in glass vials. Stock solutions are mixed by vigorous vortexing and sonication for about 2 minutes at room temperature. For testing, compounds are diluted in glass vials using an intermediate dilution step in pure DMSO and then further diluted to working concentrations in external solution. Dilutions are prepared no longer than 20 minutes before use.
After achieving the whole-cell configuration, cells are monitored for 90 seconds to assess stability and washed with external solution for 66 seconds. The voltage protocol described above is then applied to the cells every 12 seconds and throughout the whole procedure. Only cells with stable recording parameters and meeting specified health criteria are allowed to enter the compound addition procedure.
External solution containing 0.1% DMSO (vehicle) is applied to the cells first to establish the control peak current amplitude. After allowing the current to stabilize for 3 to 5 minutes, 1 μM and then 10 μM test compounds are applied. Each compound concentration is added 4 times and cells are kept in test solution until the effect of the compound reaches steady state or for a maximum of 12 minutes. After addition of test compound, a positive control (1 μM Cisapride) is added and must block >95% of the current for the experiment to be considered valid. Washout in the external solution compartment is performed until the recovery of the current reaches steady state. Data are analyzed using DataXpress, Clampfit (Molecular Devices, Inc., Sunnyvale) and Origin 7 (Originlab Corp.)

[1] = biological target: T2, wild-type human cardiac sodium channel, hNav1.5 (late sodium current) (Homo sapiens, UniProt Q14524); assay: Late INa screening assay (PatchXpress whole cell patch clamp); assay type: cell-based; conditions: HEK293 hNav1.5, late INa generated with 10 μM Tefluthrin (some experiments 50 nM ATX II); for inhibition at 10 µM: 10 μM test compound, read-out: Late INa % blk (10 μM test cmpd); for inhibition at 1 µM: 1 μM test compound, read-out: Late INa % blk (1 μM test cmpd)
T2 construct: host or cells: HEK293
T2 sequence (Q14524 whole entry): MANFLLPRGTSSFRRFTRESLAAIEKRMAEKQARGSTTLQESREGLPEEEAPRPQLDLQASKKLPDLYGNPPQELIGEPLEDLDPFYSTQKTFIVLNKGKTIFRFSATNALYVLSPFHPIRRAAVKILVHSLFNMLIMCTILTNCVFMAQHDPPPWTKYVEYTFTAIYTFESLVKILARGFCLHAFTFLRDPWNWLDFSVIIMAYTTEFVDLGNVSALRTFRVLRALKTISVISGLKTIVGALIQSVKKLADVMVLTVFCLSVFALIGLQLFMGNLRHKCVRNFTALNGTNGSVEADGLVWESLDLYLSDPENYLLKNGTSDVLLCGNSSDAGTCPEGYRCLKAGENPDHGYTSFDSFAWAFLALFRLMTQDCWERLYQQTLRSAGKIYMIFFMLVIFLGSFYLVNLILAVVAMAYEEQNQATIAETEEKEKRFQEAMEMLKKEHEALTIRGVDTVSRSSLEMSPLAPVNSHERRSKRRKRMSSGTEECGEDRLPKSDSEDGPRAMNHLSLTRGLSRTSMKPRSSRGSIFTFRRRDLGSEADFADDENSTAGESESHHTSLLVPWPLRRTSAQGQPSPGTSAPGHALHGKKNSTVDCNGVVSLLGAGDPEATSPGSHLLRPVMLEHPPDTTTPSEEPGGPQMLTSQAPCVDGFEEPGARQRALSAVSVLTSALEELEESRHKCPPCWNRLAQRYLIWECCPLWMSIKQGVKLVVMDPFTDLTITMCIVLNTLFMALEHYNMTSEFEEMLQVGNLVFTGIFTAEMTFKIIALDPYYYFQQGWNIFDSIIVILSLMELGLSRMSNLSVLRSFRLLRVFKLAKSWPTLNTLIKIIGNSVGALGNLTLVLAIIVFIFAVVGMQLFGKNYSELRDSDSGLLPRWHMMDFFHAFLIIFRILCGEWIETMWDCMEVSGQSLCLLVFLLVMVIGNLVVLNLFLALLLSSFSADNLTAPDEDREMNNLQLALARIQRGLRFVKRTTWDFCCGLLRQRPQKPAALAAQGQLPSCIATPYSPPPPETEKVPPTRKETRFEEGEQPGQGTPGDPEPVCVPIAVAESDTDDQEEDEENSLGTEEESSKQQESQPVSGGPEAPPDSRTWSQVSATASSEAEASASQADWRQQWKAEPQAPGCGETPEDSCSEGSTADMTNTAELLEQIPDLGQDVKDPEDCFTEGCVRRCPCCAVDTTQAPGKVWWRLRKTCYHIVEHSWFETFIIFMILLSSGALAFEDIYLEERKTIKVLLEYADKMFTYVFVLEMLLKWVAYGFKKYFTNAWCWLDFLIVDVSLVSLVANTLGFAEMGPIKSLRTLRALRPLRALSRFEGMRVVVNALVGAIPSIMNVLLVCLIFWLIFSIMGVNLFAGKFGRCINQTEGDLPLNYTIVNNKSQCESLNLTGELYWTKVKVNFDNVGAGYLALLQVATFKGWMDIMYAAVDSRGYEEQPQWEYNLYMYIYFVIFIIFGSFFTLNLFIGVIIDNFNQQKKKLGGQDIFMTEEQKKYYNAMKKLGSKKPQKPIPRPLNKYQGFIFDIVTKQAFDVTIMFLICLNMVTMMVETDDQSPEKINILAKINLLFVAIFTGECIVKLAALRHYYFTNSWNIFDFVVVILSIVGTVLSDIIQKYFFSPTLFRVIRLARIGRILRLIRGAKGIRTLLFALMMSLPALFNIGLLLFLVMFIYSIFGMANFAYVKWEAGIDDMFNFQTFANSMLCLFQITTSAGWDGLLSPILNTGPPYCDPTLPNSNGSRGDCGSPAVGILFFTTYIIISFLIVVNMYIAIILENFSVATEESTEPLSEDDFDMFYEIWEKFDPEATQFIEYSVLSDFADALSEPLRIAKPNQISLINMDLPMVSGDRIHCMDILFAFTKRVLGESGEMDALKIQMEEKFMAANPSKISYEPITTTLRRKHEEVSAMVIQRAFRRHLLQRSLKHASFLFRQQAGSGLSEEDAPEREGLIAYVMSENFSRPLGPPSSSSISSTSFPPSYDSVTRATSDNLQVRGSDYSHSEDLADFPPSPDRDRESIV
Procedure, shortened: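 Late sodium current block was assessed by automated whole cell patch clamp on a PatchXpress 7000A using HEK293 cells stably expressing wild-type human hNav1.5 without beta subunits. Late current was induced with 10 μM Tefluthrin or 50 nM ATX II. Channels were stepped from −120 mV to −20 mV for 250 ms at 0.1 Hz at 24-27° C. Current was normalized to 0Na baseline and expressed as percent block.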

T1 sequence (Q12809 whole entry): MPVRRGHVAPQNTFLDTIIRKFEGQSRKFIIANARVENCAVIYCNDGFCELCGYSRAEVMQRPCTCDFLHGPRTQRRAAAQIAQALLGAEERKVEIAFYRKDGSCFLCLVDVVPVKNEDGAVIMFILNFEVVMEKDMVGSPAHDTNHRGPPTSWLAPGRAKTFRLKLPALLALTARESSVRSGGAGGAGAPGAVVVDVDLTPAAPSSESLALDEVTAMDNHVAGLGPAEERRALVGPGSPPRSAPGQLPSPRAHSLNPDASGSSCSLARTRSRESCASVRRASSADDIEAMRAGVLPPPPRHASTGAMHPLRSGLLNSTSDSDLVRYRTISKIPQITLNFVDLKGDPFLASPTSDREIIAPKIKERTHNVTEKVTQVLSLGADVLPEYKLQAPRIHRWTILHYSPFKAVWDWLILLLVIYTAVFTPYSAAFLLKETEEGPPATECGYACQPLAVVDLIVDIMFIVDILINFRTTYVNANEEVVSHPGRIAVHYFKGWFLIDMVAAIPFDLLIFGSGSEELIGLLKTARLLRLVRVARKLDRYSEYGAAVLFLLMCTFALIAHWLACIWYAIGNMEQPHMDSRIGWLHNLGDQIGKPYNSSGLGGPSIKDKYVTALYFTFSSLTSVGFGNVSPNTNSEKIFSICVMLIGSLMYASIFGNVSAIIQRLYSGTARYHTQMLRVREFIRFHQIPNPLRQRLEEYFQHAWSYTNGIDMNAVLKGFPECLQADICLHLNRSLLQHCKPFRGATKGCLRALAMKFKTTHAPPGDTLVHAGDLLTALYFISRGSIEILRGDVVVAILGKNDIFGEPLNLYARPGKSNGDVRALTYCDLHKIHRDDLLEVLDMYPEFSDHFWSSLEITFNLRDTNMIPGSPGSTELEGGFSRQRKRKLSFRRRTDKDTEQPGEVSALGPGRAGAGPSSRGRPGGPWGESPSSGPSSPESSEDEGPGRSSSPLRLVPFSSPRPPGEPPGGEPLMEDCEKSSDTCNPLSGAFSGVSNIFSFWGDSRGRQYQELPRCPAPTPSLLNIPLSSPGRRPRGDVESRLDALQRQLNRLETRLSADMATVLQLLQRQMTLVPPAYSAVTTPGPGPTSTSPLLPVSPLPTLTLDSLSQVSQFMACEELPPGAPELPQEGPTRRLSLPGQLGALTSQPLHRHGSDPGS

CS(=O)(=O)Nc1ccc(-c2cccc(C(F)(F)F)c2)cc1 [PT-001, N-[3′-(trifluoromethyl)biphenyl-4-yl]methanesulfonamide]
hERG Patch Clamp hERG % blk 1 μm (hERG potassium channel): 10%
hERG Patch Clamp hERG % blk 10 μm (hERG potassium channel): 66%
inhibition at 10 µM [1]: 58.1%

COc1cc(NS(C)(=O)=O)ccc1-c1ccc(Cl)c(F)c1 [PT-003, N-(4′-chloro-3′-fluoro-2-methoxybiphenyl-4-yl)methanesulfonamide]
hERG Patch Clamp hERG % blk 1 μm (hERG potassium channel): 10%
hERG Patch Clamp hERG % blk 10 μm (hERG potassium channel): 28.3%
inhibition at 1 µM [1]: 11.2%
inhibition at 10 µM [1]: 58.3%

CS(=O)(=O)Nc1ccc(-c2ccc(C(F)(F)F)cc2)c(C(F)(F)F)c1 [PT-013, N-[2,4′-bis(trifluoromethyl)biphenyl-4-yl]methanesulfonamide]
hERG Patch Clamp hERG % blk 1 μm (hERG potassium channel): 10.5%
hERG Patch Clamp hERG % blk 10 μm (hERG potassium channel): 29%
inhibition at 10 µM [1]: 54.1%

CS(=O)(=O)Nc1ccc(-c2ccc(Cl)c(F)c2)c(Cl)c1 [PT-017, N-(2,4′-dichloro-3′-fluorobiphenyl-4-yl)methanesulfonamide]
hERG Patch Clamp hERG % blk 1 μm (hERG potassium channel): 21%
hERG Patch Clamp hERG % blk 10 μm (hERG potassium channel): 80%
inhibition at 1 µM [1]: 34.8%
inhibition at 10 µM [1]: 69.5%

Cc1cc(NS(C)(=O)=O)ccc1-c1ccc(Oc2ccccc2)cc1 [PT-046, N-(2-methyl-4′-phenoxybiphenyl-4-yl)methanesulfonamide]
hERG Patch Clamp hERG % blk 1 μm (hERG potassium channel): 10%
hERG Patch Clamp hERG % blk 10 μm (hERG potassium channel): 28.5%

Cc1cc(N(Cc2ccc(C(=O)O)cc2)S(C)(=O)=O)ccc1-c1ccc(Oc2ccc(F)cc2)cc1 [PT-136, 4-((N-(4′-(4-fluorophenoxy)-2-methylbiphenyl-4-yl)methylsulfonamido)methyl)benzoic acid]
inhibition at 10 µM [1]: 8.8%

CNC(=O)c1cc(N(Cc2ccc(S(C)(=O)=O)cc2)S(C)(=O)=O)ccc1-c1ccc(Oc2ccccc2)cc1 [PT-138, N-methyl-4-(N-(4-(methylsulfonyl)benzyl)methylsulfonamido)-4′-phenoxybiphenyl-2-carboxamide]
inhibition at 10 µM [1]: 12.6%

CNC(=O)c1cc(NS(=O)(=O)C2CC2)ccc1-c1ccc(Oc2ccccc2)cc1 [PT-139, 4-(cyclopropanesulfonamido)-N-methyl-4′-phenoxybiphenyl-2-carboxamide]
inhibition at 10 µM [1]: 43.7%

CC(C)NC(=O)c1cc(NS(C)(=O)=O)ccc1-c1ccc(Oc2ccccc2)cc1 [PT-140, N-isopropyl-4-(methylsulfonamido)-4′-phenoxybiphenyl-2-carboxamide]
inhibition at 10 µM [1]: 47.4%

Cc1cc(N(Cc2ccc(C(=O)O)cc2)S(C)(=O)=O)ccc1-c1ccc(Oc2ccccc2)c(F)c1 [PT-141, 4-((N-(3′-fluoro-2-methyl-4′-phenoxybiphenyl-4-yl)methylsulfonamido)methyl)benzoic acid]
inhibition at 10 µM [1]: 23.8%

Cc1cc(-c2ccc(Oc3ccccc3)cc2)c(F)cc1N(Cc1ccc(C(=O)O)cc1)S(C)(=O)=O [PT-142, 4-((N-(2-fluoro-5-methyl-4′-phenoxybiphenyl-4-yl)methylsulfonamido)methyl)benzoic acid]
inhibition at 10 µM [1]: 2.7%

Cc1cc(N(Cc2ccc([N+](=O)[O-])cc2)S(C)(=O)=O)ccc1-c1ccc(Oc2ccccc2)cc1 [PT-143, N-(2-methyl-4′-phenoxybiphenyl-4-yl)-N-(4-nitrobenzyl)methanesulfonamide]
inhibition at 10 µM [1]: 8.7%

Cc1cc(NS(C)(=O)=O)ccc1-c1ccc(OC(C)C)cc1 [PT-144, N-(4′-isopropoxy-2-methylbiphenyl-4-yl)methanesulfonamide]
inhibition at 10 µM [1]: 44.7%

CCOC(=O)c1ccc(CN(c2ccc(-c3ccc(OC(C)C)cc3)c(C)c2)S(C)(=O)=O)cc1 [PT-145, ethyl 4-((N-(4′-isopropoxy-2-methylbiphenyl-4-yl)methylsulfonamido)methyl)benzoate]
inhibition at 10 µM [1]: 17.1%

Cc1cc(N(Cc2ccc(C(=O)O)cc2)S(C)(=O)=O)ccc1-c1ccc(OC(C)C)cc1 [PT-146, 4-((N-(4′-isopropoxy-2-methylbiphenyl-4-yl)methylsulfonamido)methyl)benzoic acid]
inhibition at 10 µM [1]: 3.65%

CC(C)Oc1ccc(-c2ccc(NS(C)(=O)=O)c(Cl)c2)cc1 [PT-148, N-(3-chloro-4′-isopropoxybiphenyl-4-yl)methanesulfonamide]
inhibition at 10 µM [1]: 36.2%

CS(=O)(=O)Nc1ccc(-c2ccc(Oc3ccc(F)cc3)cc2)cc1Cl [PT-149, N-(3-chloro-4′-(4-fluorophenoxy)biphenyl-4-yl)methanesulfonamide]
inhibition at 10 µM [1]: 58%

Cc1cc(NS(=O)(=O)C2CC2)ccc1-c1ccc(C#N)cc1 [PT-150, N-(4′-cyano-2-methylbiphenyl-4-yl)cyclopropanesulfonamide]
inhibition at 10 µM [1]: 22.5%

Cc1cc(NS(=O)(=O)C2CC2)ccc1-c1ccc(OC(C)C)cc1 [PT-151, N-(4′-isopropoxy-2-methylbiphenyl-4-yl)cyclopropanesulfonamide]
inhibition at 10 µM [1]: 32.6%

CC(C)Oc1ccc(-c2ccc(NS(=O)(=O)C3CC3)c(C#N)c2)cc1 [PT-152, N-(3-cyano-4′-isopropoxybiphenyl-4-yl)cyclopropanesulfonamide]
inhibition at 10 µM [1]: 29%

CS(=O)(=O)N(Cc1ccc(C(=O)O)cc1)c1cccc(-c2ccc(C(F)(F)F)c(F)c2)c1 [PT-154, 4-((N-(3′-fluoro-4′-(trifluoromethyl)biphenyl-3-yl)methylsulfonamido)methyl)benzoic acid]
inhibition at 10 µM [1]: 7%

CS(=O)(=O)N(Cc1ccc(C(=O)O)cc1)c1ccc(-c2ccc(Oc3ccccc3)cc2)cc1 [PT-156, 4-((N-(4′-phenoxybiphenyl-4-yl)methylsulfonamido)methyl)benzoic acid]
inhibition at 10 µM [1]: 7.9%

CC(C)Oc1ccc(-c2ccc(NS(=O)(=O)C3CC3)c(-c3nn[nH]n3)c2)cc1 [PT-157, N-(4′-isopropoxy-3-(2H-tetrazol-5-yl)biphenyl-4-yl)cyclopropanesulfonamide]
inhibition at 10 µM [1]: 5.8%

Cc1cc(NS(=O)(=O)C2CC2)ccc1-c1ccc(-c2nn[nH]n2)cc1 [PT-158, N-(2-methyl-4′-(2H-tetrazol-5-yl)biphenyl-4-yl)cyclopropanesulfonamide]
inhibition at 10 µM [1]: 2.8%

COP(=O)(O)c1cc(-c2ccc(Oc3ccc(F)cc3)cc2)ccc1NS(C)(=O)=O [PT-159, methyl hydrogen 4′-(4-fluorophenoxy)-4-(methylsulfonamido)biphenyl-3-ylphosphonate]
inhibition at 10 µM [1]: 36.1%

CS(=O)(=O)N(Cc1ccc(CC(=O)O)cc1)c1ccc(-c2ccc(Oc3ccccc3)cc2)c(Cl)c1 [PT-161, 2-(4-((N-(2-chloro-4′-phenoxybiphenyl-4-yl)methylsulfonamido)methyl)phenyl)acetic acid]
inhibition at 10 µM [1]: 30.9%

O=C(NCCO)c1cc(-c2ccc(C(F)(F)F)cc2)ccc1NS(=O)(=O)C1CC1 [PT-162, 4-(cyclopropanesulfonamido)-N-(2-hydroxyethyl)-4′-(trifluoromethyl)biphenyl-3-carboxamide]
inhibition at 10 µM [1]: -5.3%

CS(=O)(=O)Nc1ccc(-c2ccc(Oc3ccccc3)cc2)c(N)c1 [PT-163, N-(2-amino-4′-phenoxybiphenyl-4-yl)methanesulfonamide]
inhibition at 10 µM [1]: 54.7%

CS(=O)(=O)Nc1ccc(-c2ccc(C(F)(F)F)cc2)c(N)c1 [PT-164, N-(2-amino-4′-(trifluoromethyl)biphenyl-4-yl)methanesulfonamide]
inhibition at 10 µM [1]: 12.2%

CS(=O)(=O)Nc1ccc(-c2ccc(C(F)(F)F)cc2)c(NC(=O)c2cccnc2)c1 [PT-165, N-(4-(methylsulfonamido)-4′-(trifluoromethyl)biphenyl-2-yl)nicotinamide]
inhibition at 10 µM [1]: -0.3%

Reference: patent US8389500B2, “Fused heterocyclic compounds as ion channel modulators” (Gilead Sciences, Inc., priority 2008, dated 2013)
